Test results taken from patent publication US20180256673A1, “METHODS FOR TREATING FUNGAL INFECTIONS” (priority 2015, published 2018).
≈ marks a conversion by molar mass, not a printed value. Where “and” joins values, the source holds several entries; their conditions need not be identical. Equal entries are not always repeated. Where two headings read alike, the source gives them in different places. Starred links: 1 amine or outer side, 2 acyl side, 3 side chain; linkers in the order of their positions; H or OH if unused. Positions of bridges follow the written chain, without caps; N, C: chain ends. Non-standard residues stand in square brackets, D forms with d. Residues, ends and D or L forms follow the SMILES beside them. *: point of attachment. pTerphenylCO(4''-OnC5H11) = CCCCCOc1ccc(-c2ccc(-c3ccc(C(=O)*)cc3)cc2)cc1; Orn(4R-OH,5R-OH) = O=C([C@H](C[C@@H](O)[C@@H](O)N[*:3])N[*:1])[*:2]; hTyr(3S-OH,4S-OH) = N[C@H](C(=O)O)[C@H](O)[C@@H](O)c1ccc(O)cc1; Pro(3S-OH,4S-Me) = C[C@H]1CN[C@H](C(=O)O)[C@H]1O; Hyp = O=C(O)[C@@H]1C[C@@H](O)CN1

What was measured:
Candida orthopsilosis = experiment: Broth microdilution of invasive fungal isolates (CLSI M27-A3/M38-A2); format: cell-based
C. krusei ATCC 6258 = experiment: Broth microdilution MIC (CLSI), Examples 3 and 4; conditions: Pichia kudriavzevii, ATCC6258, 24 h, read-out: Broth MIC
Description: (§1) Antifungal susceptibility testing. Candida strains were cultured aerobically at 35° C. on SDA plates or in RPMI 1640 broth (pH 7.0). […] MIC assays were performed in triplicate.

Candida albicans = experiment: Broth microdilution of invasive fungal isolates (CLSI M27-A3/M38-A2); format: cell-based
[1] = system: Cryptococcus neoformans var. grubii; experiment: as above; format: cell-based
[2] = system: C. glabrata ATCC 90030, ATCC 2001; format: cell-based, Candida glabrata; conditions: for Freq. (replicate mutation frequency): replicate plates 1-3; for Plate concentration: SDA, minimum concentration to cleanly inhibit growth
Description: Spontaneous mutant selection. […] Three individual colonies from each strain were used to start cultures in RPMI. […] One milliliter aliquots were spread onto SDA plates containing drug with sterile glass beads. Starting viable count was enumerated by triplicate plating of serial dilutions of the starting inoculum. […] Glycerol stocks of putative mutant colonies were stored at −80° C. […] Spontaneous mutation frequencies were calculated by dividing the number of resistant colonies on a given plate by the starting inoculum plated. A subset of mutants (weighted heavily towards those selected with CMP1) were then evaluated by MIC and sequencing of FKS gene hot spot regions.

Candida tropicalis = experiment: Broth microdilution of invasive fungal isolates (CLSI M27-A3/M38-A2); format: cell-based
Candida glabrata = experiment: microbe, parasite or virus in culture; format: cell-based
[3] = system: C. glabrata ATCC 90030, ATCC 2001; experiment: Broth microdilution MIC (CLSI), Examples 3 and 4; conditions: Nakaseomyces glabratus
Description: as §1

Aspergillus fumigatus = experiment: Broth microdilution of invasive fungal isolates (CLSI M27-A3/M38-A2), MEC; format: cell-based; conditions: 56 isolates

## CCCCCOc1ccc(-c2ccc(-c3ccc(C(=O)N[C@H]4C[C@@H](O)[C@@H](O)NC(=O)[C@@H]5[C@@H](O)[C@@H](C)CN5C(=O)[C@H]([C@@H](C)O)NC(=O)[C@H]([C@H](O)[C@@H](O)c5ccc(O)cc5)NC(=O)[C@@H]5C[C@@H](O)CN5C(=O)[C@H]([C@@H](C)O)NC4=O)cc3)cc2)cc1 [ANID, anidulafungin] ({pTerphenylCO(4''-OnC5H11)}-[Orn(4R-OH,5R-OH)]T[Hyp][hTyr(3S-OH,4S-OH)]T[Pro(3S-OH,4S-Me)]; lactam 1-C)
Candida orthopsilosis; 10 isolates
  Cumulative % of isolates inhibited at MIC 0.25 μg/mL: (30.0) %
  Cumulative % of isolates inhibited at MIC 0.5 μg/mL: (50.0) %
  Cumulative % of isolates inhibited at MIC 1 μg/mL: (90.0) %
  Cumulative % of isolates inhibited at MIC 2 μg/mL: (100.0) %
  Number of isolates inhibited at MIC 0.25 μg/mL: 3
  Number of isolates inhibited at MIC 0.5 μg/mL: 2
  Number of isolates inhibited at MIC 1 μg/mL: 4
  Number of isolates inhibited at MIC 2 μg/mL: 1
Candida orthopsilosis; Lodderomyces orthopsilosis
  MIC50: 0.5 µg/mL (≈ 0.438 µM)
  MIC90: 1 µg/mL (≈ 0.877 µM)
C. krusei ATCC 6258
  MIC: 0.06 µg/mL (≈ 0.0526 µM)
Candida albicans; 251 isolates
  Cumulative % of isolates inhibited at MIC 0.015 μg/mL: (67.7) %
  Cumulative % of isolates inhibited at MIC 0.03 μg/mL: (89.2) %
  Cumulative % of isolates inhibited at MIC 0.06 μg/mL: (98.0) %
  Cumulative % of isolates inhibited at MIC 0.12 μg/mL: (100.0) %
  Cumulative % of isolates inhibited at MIC ≤0.008 μg/mL: (27.5) %
  Number of isolates inhibited at MIC 0.015 μg/mL: 101
  Number of isolates inhibited at MIC 0.03 μg/mL: 54
  Number of isolates inhibited at MIC 0.06 μg/mL: 22
  Number of isolates inhibited at MIC 0.12 μg/mL: 5
  Number of isolates inhibited at MIC ≤0.008 μg/mL: 69
Candida albicans; Candida albicans
  MIC50: 0.015 µg/mL (≈ 0.0132 µM)
  MIC90: 0.06 µg/mL (≈ 0.0526 µM)
[1]; 19 isolates
  Cumulative % of isolates inhibited at MIC >8 μg/mL: (100.0) %
  Number of isolates inhibited at MIC >8 μg/mL: 19
[1]; Cryptococcus neoformans
  MIC50: 8 µg/mL (≈ 7.02 µM)
  MIC90: 8 µg/mL (≈ 7.02 µM)
[2]; ATCC 2001
  Median mutation frequency: 7.02E−08
  Freq. (replicate mutation frequency): 7.02E−08 and 6.71E−08 and 1.09E−07
  Plate concentration: 0.125 µg/mL
[2]; ATCC 90030
  Median mutation frequency: 9.01E−09
  Freq. (replicate mutation frequency): 4.41E−09 and 2.10E−08 and 9.01E−09
  Plate concentration: 0.125 µg/mL
Candida tropicalis; 51 isolates
  Cumulative % of isolates inhibited at MIC 0.015 μg/mL: (62.7) %
  Cumulative % of isolates inhibited at MIC 0.03 μg/mL: (98.0) %
  Cumulative % of isolates inhibited at MIC 0.06 μg/mL: (100.0) %
  Cumulative % of isolates inhibited at MIC ≤0.008 μg/mL: (9.8) %
  Number of isolates inhibited at MIC 0.015 μg/mL: 27
  Number of isolates inhibited at MIC 0.03 μg/mL: 18
  Number of isolates inhibited at MIC 0.06 μg/mL: 1
  Number of isolates inhibited at MIC ≤0.008 μg/mL: 5
Candida tropicalis; Candida tropicalis
  MIC50: 0.015 µg/mL (≈ 0.0132 µM)
  MIC90: 0.03 µg/mL (≈ 0.0263 µM)
Candida glabrata
  Cumulative % of isolates inhibited at MIC 0.015 μg/mL: (1.0) %
  Cumulative % of isolates inhibited at MIC 0.03 μg/mL: (12.0) %
  Cumulative % of isolates inhibited at MIC 0.06 μg/mL: (74.0) %
  Cumulative % of isolates inhibited at MIC 0.12 μg/mL: (95.0) %
  Cumulative % of isolates inhibited at MIC 0.25 μg/mL: (95.0) %
  Cumulative % of isolates inhibited at MIC 0.5 μg/mL: (95.0) %
  Cumulative % of isolates inhibited at MIC 1 μg/mL: (95.0) %
  Cumulative % of isolates inhibited at MIC 2 μg/mL: (98.0) %
  Cumulative % of isolates inhibited at MIC 4 μg/mL: (100.0) %
  Cumulative % of isolates inhibited at MIC ≤0.008 μg/mL: (1.0) %
  Number of isolates inhibited at MIC 0.015 μg/mL: 0
  Number of isolates inhibited at MIC 0.03 μg/mL: 11
  Number of isolates inhibited at MIC 0.06 μg/mL: 62
  Number of isolates inhibited at MIC 0.12 μg/mL: 21
  Number of isolates inhibited at MIC 0.25 μg/mL: 0
  Number of isolates inhibited at MIC 0.5 μg/mL: 0
  Number of isolates inhibited at MIC 1 μg/mL: 0
  Number of isolates inhibited at MIC 2 μg/mL: 3
  Number of isolates inhibited at MIC 4 μg/mL: 2
  Number of isolates inhibited at MIC ≤0.008 μg/mL: 1
Candida glabrata; Nakaseomyces glabratus, read-out: MIC50
  MIC50: 0.06 µg/mL (≈ 0.0526 µM)
Candida glabrata; Nakaseomyces glabratus, read-out: MIC90
  MIC90: 0.12 µg/mL (≈ 0.105 µM)
Candida glabrata; Nakaseomyces glabratus, read-out: MIC according to CLSI method
  MIC: 2 µg/mL (≈ 1.75 µM)
Candida glabrata; Nakaseomyces glabratus, read-out: MIC results
  MIC: 2 to 4 µg/mL (≈ 1.75 to 3.51 µM)
Candida glabrata; listed as ANF
  MIC according to CLSI method: 4 µg/mL (≈ 3.51 µM)
[3]; ATCC2001|ATCC90030, 24 h, read-out: Broth MIC, ATCC 2001 wild-type, 24 h, ~50% inhibition
  MIC: 0.06 µg/mL (≈ 0.0526 µM)
[3]; ATCC2001|ATCC90030, 24 h, read-out: Broth MIC, ATCC 90030 wild-type, 24 h, ~50% inhibition
  MIC: 0.06 µg/mL (≈ 0.0526 µM)
[3]; ATCC2001|ATCC90030, ATCC 2001 spontaneous mutant, Fks2 HS1 D666N
  MIC: 0.5 µg/mL (≈ 0.438 µM)
[3]; ATCC2001|ATCC90030, ATCC 2001 spontaneous mutant, Fks2 HS1 D666Y
  MIC: 0.5 µg/mL (≈ 0.438 µM)
[3]; ATCC2001|ATCC90030, ATCC 2001 spontaneous mutant, Fks2 HS1 R665G
  MIC: 0.5 µg/mL (≈ 0.438 µM)
[3]; ATCC2001|ATCC90030, ATCC 2001 spontaneous mutant, Fks2 HS1 S663F
  MIC: 1 µg/mL (≈ 0.877 µM)
[3]; ATCC2001|ATCC90030, ATCC 2001 spontaneous mutant, Fks2 HS1 ΔF659
  MIC: 4 µg/mL (≈ 3.51 µM)
[3]; ATCC2001|ATCC90030, ATCC 2001 spontaneous mutant, Fks2 HS2 R1378S
  MIC: 0.25 µg/mL (≈ 0.219 µM)
[3]; ATCC2001|ATCC90030, ATCC 90030 spontaneous mutant, Fks2 HS1 D666H
  MIC: 1 µg/mL (≈ 0.877 µM)
[3]; ATCC2001|ATCC90030, ATCC 90030 spontaneous mutant, Fks2 HS1 ΔF659
  MIC: 2 µg/mL (≈ 1.75 µM)
Aspergillus fumigatus
  Cumulative % of isolates inhibited at MEC 0.015 μg/mL: (91.1) %
  Cumulative % of isolates inhibited at MEC 0.03 μg/mL: (100.0) %
  Cumulative % of isolates inhibited at MEC ≤0.008 μg/mL: (53.6) %
  MEC50: 0.008 µg/mL
  Number of isolates inhibited at MEC 0.015 μg/mL: 21
  Number of isolates inhibited at MEC 0.03 μg/mL: 5
  Number of isolates inhibited at MEC ≤0.008 μg/mL: 30
